Assays:
OXA-48 [1] = biological target: T1, OXA-48 (Klebsiella pneumoniae, UniProt Q6XEC0); assay: Surface plasmon resonance interaction analysis; format: binding; details: 12.5-200 µM quercetin over immobilized OXA-48
T1 construct: made in house; host or cells: E. coli BL21(DE3)
Description: Surface plasmon resonance (SPR) experiments were performed on a Biacore T100 at 25°C. The running buffer consisted of 10 mM PBS (pH 7.3), 0.5% Tween-20, and 2.5% DMSO. OXA-48 solution was prepared in a concentration of […] in 10 mM PBS (pH 7.3) and immobilized on a CM5 chip using standard amine coupling to a level of approximately 5000 RU. Quercetin was dissolved in the running buffer and tested in 2-fold dilutions ranging from 12.5 to 200 µM with an injection time of 30 s and a dissociation time of 60 s. The data were analyzed using Biacore T100 Evaluation Software 2.0.
A surface plasmon resonance (SPR) assay was then performed to investigate whether quercetin inhibited the activity of OXA-48 by directly binding to OXA-48. OXA-48 enzyme was immobilized on a CM5 sensor chip with an immobilization level of approximately 5000 RU. Quercetin was injected at different concentrations (12.5, 25, 50, 100 and 200 µM) over the protein surface.

[2] = tested on: E. coli BW25113 ∆acrA∆bamB (OXA-48); assay: Growth curve with quercetin alone; format: cell-based; details: quercetin at 16 or 64 μg/mL
Description: We next performed checkerboard microdilution assays against OXA-48-positive strain BW25113 ∆acrA∆bamB (OXA-48) and OXA-48-negative strain ∆acrA∆bamB to assess the synergistic antimicrobial effect. […] The synergy effect was further verified by time-kill curves.
FIGURE 6 (A,B) Heatmap showing the growth inhibition of OXA-48-positive strain E. coli BW25113 ∆acrA∆bamB (OXA-48) (A) and OXA-48-negative strain ∆acrA∆bamB (B) in the presence of quercetin and piperacillin. (C) Time-kill curves for combination therapy of piperacillin and quercetin against E. coli BW25113 ∆acrA∆bamB (OXA-48). The concentrations of piperacillin and quercetin used in the assay were 64 and 64 μg/mL , respectively. (D) The growth curve of E. coli BW25113 ∆acrA∆bamB (OXA-48) in the absence and presence of quercetin.

mice = details: ref Sullivan et al., 1951, Taepongsorat et al., 2008; cited from earlier work
[3] = tested on: ∆acrA∆bamB (OXA-48) mutant strain; assay: Cell-based screen of natural products in the presence of piperacillin; parameters: species or system E. coli
Description: The ∆acrA∆bamB (OXA-48) mutant strain was then used to screen for inhibitors of OXA-48. […] Approximately 150 plant natural products with a concentration of 40 μg/mL were screened in the presence of 128 μg/mL piperacillin.

OXA-48 β-Lactamase = biological target: T2, OXA-48 β-Lactamase (Klebsiella pneumoniae, UniProt Q6XEC0); assay: Partition ratio measurement; format: biochemical; details: OXA-48 12 nM, 1 h incubation; at a 5 μM concentration of quercetin
T2 construct: made in house; host or cells: E. coli BL21(DE3)
T2 sequence (Q6XEC0 23-265 limits assumed): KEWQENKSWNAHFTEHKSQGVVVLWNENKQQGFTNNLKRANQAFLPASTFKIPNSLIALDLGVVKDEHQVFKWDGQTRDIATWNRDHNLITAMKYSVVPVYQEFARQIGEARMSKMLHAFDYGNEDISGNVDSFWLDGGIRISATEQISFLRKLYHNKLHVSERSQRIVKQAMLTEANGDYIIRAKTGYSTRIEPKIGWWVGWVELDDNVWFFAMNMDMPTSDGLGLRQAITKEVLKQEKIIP

OXA-48 [4] = biological target: T1, OXA-48; assay: Inhibition kinetics (Lineweaver-Burk plots) of OXA-48-catalyzed nitrocefin hydrolysis; format: biochemical; details: for inhibition mode: Lineweaver-Burk plots, Km unchanged, Vmax decreased; for Ki: nitrocefin 25, 50, 75, 100 μM, Lineweaver-Burk
Description: The inhibition mode of quercetin and the inhibition constant (K i) were determined using a Lineweaver–Burk plot by fitting the initial rate versus the substrate concentration at each inhibitor concentration using SigmaPlot 12.0. The nitrocefin concentrations were 25, 50, 75, and 100 μM, respectively. The initial velocity was determined by measuring the […] as described above. All reaction rates were determined in triplicate.
To determine the inhibition mode of the flavonoids, the inhibition kinetics of quercetin, fisetin and luteolin against OXA-48 in the presence of different concentrations of substrate were determined, and the inhibition modes were determined by generating Lineweaver-Burk plots.

OXA-48 [5] = biological target: T1, OXA-48; assay: Isothermal titration calorimetry of imipenem hydrolysis by OXA-48; format: biochemical; details: quercetin 0 to 40 µM, imipenem 1 mM, OXA-48 10 nM, 25°C
Description: OXA-48, imipenem, and quercetin were prepared in 30 mM Tris, 5 mM NaHCO3 (pH 7.5) supplemented with 5% DMSO. […] The solutions were degassed by centrifugation at a speed of 14,000 × g for 5 min before injection. The enzyme and inhibitor samples were preincubated for 1 h and then loaded into the sample cell. Imipenem (38 µL) in the syringe was titrated into the sample cell (210 µL) in a single injection mode. Heat flow (μcal/s) was recorded as a function of time. As a negative control, the reaction in the absence of quercetin was measured. The data were collected and analyzed with MicroCal Analysis Launcher Origin 7.0 software.
Isothermal titration calorimetry (ITC) was performed to assess the thermodynamic inhibitory effect of quercetin against OXA-48 ([Zhang et al., 2018]). […] Different concentrations of quercetin were incubated with purified OXA-48 for 1 h in 30 mM Tris, 5 mM NaHCO3 (pH 7.5). The mixtures were loaded into the sample cell (210 µL). A 38 µL of the substrate (imipenem) in the syringe was titrated into the sample cell in a single injection mode.

[6] = tested on: E.coli BW25113 ∆acrA∆bamB (OXA-48); format: cell-based; details: for reduction in the piperacillin MIC: compound at 64 μg/mL; for MIC decrease for imipenem: compound at a dose of 64 μg/mL
Description: The recombinant plasmid containing the Pbla promoter and OXA-48 constructed above was then transformed into BW25113, BW25113 ∆acrA, BW25113 ∆bamB, and BW25113 ∆acrA∆bamB. The above strains were used to study the minimum inhibitory concentration (MIC). Antibiotic susceptibility tests were performed by the microdilution method following Clinical and Laboratory Standards Institute (CLSI) criteria ([CLSI, 2015]). Four E. coli strains expressing OXA-48 were used to assess the inhibitors. The susceptibility to piperacillin/imipenem combined with the compound at a concentration of 16 or 64 μg/mL was determined. […] Each measurement was conducted in triplicate. The fractional inhibitory concentration index (FICI) was determined according to the following formula: FICI = MIC (QT) in combination/MIC (QT) alone + MIC (PIP) in combination/MIC (PIP) alone. The drug interactions are defined as synergistic if the FICI is ≤0.5, indifferent if the FICI is >0.5 and ≤4.0, and antagonistic if the FICI is >4.0.
To investigate whether the compounds could restore the antimicrobial activity of β-lactam, the MICs of β-lactam antibiotics against resistant Gram-negative bacteria in the absence and presence of compounds (fisetin, 3′,4′,7-trihydroxyflavone, luteolin or quercetin) were determined by using published guidelines described by CLSI ([CLSI, 2015]). Specifically, we used OXA-48 producing strains E. coli BW25113, BW25113 ∆acrA, BW25113 ∆bamB, and BW25113 ∆acrA∆bamB as resistant Gram-negative bacteria. […] Imipenem, a carbapenem antibiotic, was applied at increasing concentrations ranging from 0.03 μg/mL to 4 μg/mL. The compounds were tested at 64 and 16 μg/mL.

[7] = tested on: E. coli BW25113 ∆acrA∆bamB (OXA-48); assay: Mouse systemic infection model; format: in vivo, Kunming mice; details: 10 mg/kg each, intravenous, 1 h post infection; organs 24 h post-infection; vs untreated group
OXA-48 [8] = biological target: T1, OXA-48; assay: Enzyme inhibition assay against purified OXA-48 with nitrocefin as substrate; format: biochemical; details: for percent inhibition against OXA-48: at 50 μM compound, nitrocefin substrate, 50 µM; for IC50: purified OXA-48 12 nM, nitrocefin 200 μM, 0.1 M phosphate buffer pH 7.0, 50 mM NaHCO3, 25°C, read-out: IC50 against OXA-48
Description: The inhibitory activity of compounds against the purified OXA-48 was tested on a BioTek HTS reader. The reactions were conducted in 0.1 M phosphate buffer (pH 7.0) supplemented with 50 mM NaHCO3 at 25°C with a final assay volume of 100 μL. The concentrations of enzyme and substrate were 12 nM and 200 μM, respectively. The initial reaction rates in the absence and presence of the compound were monitored at 495 nm in triplicate. The inhibitor concentration causing a 50% decrease in enzyme activity (IC50) was determined by plotting the percent inhibition against the log10 of the inhibitor concentration and fitting the data in a dose–response-inhibition model using GraphPad Prism 7.0.
Quercetin is a member of the flavonoid class with diverse structures obtained from nature, some of which have been used for the treatment of infectious diseases in traditional medical systems ([Farhadi et al., 2019]). To investigate whether quercetin and other flavonoids are OXA-48 inhibitors, the enzyme inhibition assays were conducted on a BioTek HTS reader using nitrocefin as a substrate. The concentrations of enzyme and substrate were 12 nM and 200 μM, respectively. The initial hydrolysis rate of nitrocefin was monitored at 495 nm. The percentage inhibition is defined as the enzyme activity in the absence of inhibitor (100%) minus the remaining activity in the presence of inhibitor.

cells = details: 50 µM fisetin/luteolin; ref Hytti et al., 2015; cited from earlier work

T1 sequence (Q6XEC0 23-265 limits assumed): as above

Structure (SMILES)	SPR interaction with OXA-48 (OXA-48 [1])	growth of the cells [2]	LD50 (mice)	restoration of antibiotic activity in screen ([3]; 40 μg/mL compound with 128 μg/mL piperacillin)	bactericidal effect of the compound itself ([3]; in the absence of piperacillin)	partition ratio (I:E for greater than 90% inhibition) (OXA-48 β-Lactamase)	inhibition mode (OXA-48 [4])	Ki (OXA-48 [4])	reversibility of inhibition (total heat of imipenem hydrolysis) (OXA-48 [5])	reduction in the piperacillin MIC [6]	MIC decrease for imipenem [6]	bacterial load in spleen and liver [7]	percent inhibition against OXA-48 (OXA-48 [8])	percent inhibition against OXA-48 (OXA-48 [8]; listed as quercetin)	IC50 (OXA-48 [8])	toxicity to the cells (cells)	percent inhibition against OXA-48 (OXA-48 [8]; listed as fisetin)
O=c1c(O)c(-c2ccc(O)c(O)c2)oc2cc(O)cc(O)c12 [Quercetin]	dose-dependent interaction	did not inhibit the growth of the cells	160 mg/kg	restored antibiotic activity	without bactericidal effect	approximately 420	noncompetitively inhibited	1310 ± 210 nM	reversibly inhibited OXA-48	8 fold	2 fold	did not show a significant reduction of bacterial load	87%	more than 50%	1470 ± 140 nM	–	–
O=c1c(O)c(-c2ccc(O)c(O)c2)oc2cc(O)ccc12 [Fisetin]	–	–	–	–	–	–	noncompetitively inhibited	620 ± 60 nM	–	2 fold	2 fold	–	90%	–	470 ± 30 nM	no toxicity	more than 50%
